Results published in ChEMBL document CHEMBL1153734, “Protoxylocarpins F-H, protolimonoids from seed kernels of Xylocarpus granatum” (J Nat Prod, 2009).
The source made the active and inactive calls. No cut-off for these calls is given here.

Tests used:
Type in all cases: functional, cell-based
[1] = (§1) Cytotoxicity against human ChaGo cells after 3 days by MTT assay; conditions: 72 h
SW-620 = assay: Cytotoxicity against human SW620 cells after 3 days by MTT assay
KATO III cell = assay: Cytotoxicity against human KATO III cells after 3 days by MTT assay
BT-474 = assay: Cytotoxicity against human BT474 cells after 3 days by MTT assay
ChaGo = assay: as §1
HepG2 = assay: Cytotoxicity against human HepG2 cells after 3 days by MTT assay; conditions: for IC50: HepG2, 72 h

COC(=O)CC[C@@H]1[C@@H](C)C(=O)C([C@@H](OC(C)=O)[C@@]2(O)C(=O)CC[C@]3(C)C2=CC(=O)O[C@H]3c2ccoc2)=CC1(C)C [XYLOGRANATIN C]
IC50 [1]: 9.16 µM | Activity (SW-620): inactive | Activity (KATO III cell): inactive | Activity (BT-474): inactive

CC(=O)OC1OC(C2OC2(C)C)C[C@@H]1[C@H]1CC=C2C3(C)C(O)CC4C(C)(C)C(=O)CC[C@]4(C)[C@H]3CC[C@@]21C (stereo not given in full)
Activity (ChaGo): inactive | Activity (SW-620): inactive | Activity (KATO III cell): inactive | Activity (BT-474): inactive | Activity (HepG2): inactive

COC(=O)C[C@H]1C(C)(C)[C@@H]2O[C@@]34C[C@@H]2C(=O)[C@]1(C)[C@H]3CC[C@@]1(C)[C@@H](c2ccoc2)OC(=O)C[C@]14O
Activity (ChaGo): inactive | Activity (SW-620): inactive | Activity (KATO III cell): inactive | Activity (BT-474): inactive | Activity (HepG2): inactive

CC1(C)C(=O)C=C[C@]2(C)[C@H]3CC[C@@]4(C)[C@H](c5ccoc5)OC(=O)[C@H]5O[C@]54[C@]3(C)[C@H](O)C[C@@H]12 [DEACETYLGEDUNIN]
IC50 [1]: 16 µM | Activity (SW-620): inactive | Activity (KATO III cell): inactive | Activity (BT-474): inactive | IC50 (HepG2): 10.3 µM

COC(=O)[C@H](OC(C)=O)[C@H]1[C@]2(C)C[C@]3(O)[C@H]([C@H]2OC(C)=O)[C@H]2O[C@@]4(C)O[C@@]5(CC[C@@]6(C)[C@H](c7ccoc7)OC(=O)C[C@@]6(O)[C@@]25O4)[C@]13C
Activity (ChaGo): inactive | Activity (SW-620): inactive | Activity (KATO III cell): inactive | Activity (BT-474): inactive | Activity (HepG2): inactive

COC(=O)C[C@H]1C(C)(C)[C@H](O)[C@@H]2CC3=C4CC(=O)O[C@@H](c5ccoc5)[C@]4(C)CC[C@@H]3[C@@]1(C)C2=O
Activity (ChaGo): inactive | Activity (SW-620): inactive | Activity (KATO III cell): inactive | Activity (BT-474): inactive | Activity (HepG2): inactive

COC(=O)[C@H](OC(C)=O)[C@H]1[C@]2(C)C[C@]3(O)[C@@](OC(C)=O)([C@H]4O[C@@]5(C)O[C@@]6(CC[C@@]7(C)[C@H](c8ccoc8)OC(=O)C[C@@]7(O)[C@@]46O5)[C@]13C)[C@H]2OC(C)=O
Activity (ChaGo): inactive | Activity (SW-620): inactive | Activity (KATO III cell): inactive | Activity (BT-474): inactive | Activity (HepG2): inactive

CC(=O)O[C@@H]1C[C@H]2C(C)(C)C(=O)C=C[C@]2(C)[C@H]2CC[C@]3(C)C(=CC[C@H]3[C@H]3CO[C@@H](C4(O)OC4(C)C)C3)[C@@]21C (stereo not given in full)
Activity (ChaGo): inactive | Activity (SW-620): inactive | Activity (KATO III cell): inactive | Activity (BT-474): inactive | Activity (HepG2): inactive

COC(=O)C[C@H]1C(C)(C)C(=O)[C@@H]2CC3=C4CC(=O)O[C@@H](c5ccoc5)[C@]4(C)CC[C@@H]3[C@@]1(C)C2=O
Activity (ChaGo): inactive | Activity (SW-620): inactive | Activity (KATO III cell): inactive | Activity (BT-474): inactive | Activity (HepG2): inactive

C=C1[C@@H]2CC[C@@]3(C)[C@H](c4ccoc4)OC(=O)C[C@]13O[C@H]1CC(=O)C(C)(C)[C@H](CC(=O)OC)[C@]12C
Activity (ChaGo): inactive | Activity (SW-620): inactive | Activity (KATO III cell): inactive | Activity (BT-474): inactive | Activity (HepG2): inactive

CC(=O)O[C@@H]1C[C@H]2C(C)(C)C(=O)C=C[C@]2(C)[C@H]2CC[C@]3(C)C(=CC[C@H]3[C@H]3CO[C@@H]([C@H](O)C(C)(C)O)C3)[C@@]21C
Activity (ChaGo): inactive | Activity (SW-620): inactive | Activity (KATO III cell): inactive | Activity (BT-474): inactive | Activity (HepG2): inactive

CC1(C)C(=O)C=C[C@]2(C)[C@H]3CC[C@@]4(C)[C@H](c5ccoc5)OC(=O)[C@H]5O[C@]54[C@]3(C)C(=O)C[C@@H]12 [DEACETOXY-7-OXOGEDUNIN]
IC50 (HepG2): 16.2 µM

CC(=O)O[C@@H]1C[C@H]2C(C)(C)C(=O)C=C[C@]2(C)[C@H]2CC[C@]3(C)C(=CC[C@H]3[C@H]3CO[C@@H]([C@@H](O)C(C)(C)O)C3)[C@@]21C
Activity (ChaGo): inactive | Activity (SW-620): inactive | Activity (KATO III cell): inactive | Activity (BT-474): inactive | Activity (HepG2): inactive

CC(=O)O[C@@H]1C[C@H]2C(C)(C)C(=O)C=C[C@]2(C)[C@H]2CC[C@]3(C)C(=CC[C@H]3[C@@H]3COC(=O)C3)[C@@]21C
Activity (ChaGo): inactive | Activity (SW-620): inactive | Activity (KATO III cell): inactive | Activity (BT-474): inactive | Activity (HepG2): inactive
